{
  "source": "patent US5444069A",
  "about": "“Imidazo-pyridine angiotensin II antagonists used to treat memory loss” (Warner-Lambert Company, priority 1994, dated 1995)",
  "key": {"[1]": {"target": "T1, AT2 receptor (rabbit uterus receptor preparations) (Oryctolagus cuniculus, UniProt G1T351)", "T1 construct": "cell membrane preparations derived from rabbit uterus and corpus luteum; from tissue; host or cells: rabbit uterus, cell membrane preparation", "T1 sequence (G1T351 1-363)": "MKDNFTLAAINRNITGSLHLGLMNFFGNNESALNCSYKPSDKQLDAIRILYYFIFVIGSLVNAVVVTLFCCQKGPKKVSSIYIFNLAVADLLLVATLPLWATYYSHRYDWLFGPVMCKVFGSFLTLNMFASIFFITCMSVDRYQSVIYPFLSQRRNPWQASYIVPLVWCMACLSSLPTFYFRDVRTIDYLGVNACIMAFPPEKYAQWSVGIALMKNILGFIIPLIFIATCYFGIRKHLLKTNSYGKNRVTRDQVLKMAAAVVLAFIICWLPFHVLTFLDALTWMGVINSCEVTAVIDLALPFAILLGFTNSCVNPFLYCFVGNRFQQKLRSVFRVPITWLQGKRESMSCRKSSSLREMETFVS", "assay": "displacement of 3H-angiotensin II from rabbit uterus receptor preparations", "type": "binding", "conditions": "read-out: IC50 Values in Rabbit Uterine Preparations", "from_the_text": "AT2 receptors are known to exist in organs of the female reproductive system. […] More specifically, AT2 receptors are densely located on granulosa cells in atretic follicles of the ovary."}, "[2]": {"target": "T2, AT2 receptor (whole rat brain) (Rattus norvegicus, UniProt P35351)", "T2 construct": "IC50 Values in whole Rat Brain Preparations; from tissue; host or cells: whole rat brain", "T2 sequence (P35351 1-363)": "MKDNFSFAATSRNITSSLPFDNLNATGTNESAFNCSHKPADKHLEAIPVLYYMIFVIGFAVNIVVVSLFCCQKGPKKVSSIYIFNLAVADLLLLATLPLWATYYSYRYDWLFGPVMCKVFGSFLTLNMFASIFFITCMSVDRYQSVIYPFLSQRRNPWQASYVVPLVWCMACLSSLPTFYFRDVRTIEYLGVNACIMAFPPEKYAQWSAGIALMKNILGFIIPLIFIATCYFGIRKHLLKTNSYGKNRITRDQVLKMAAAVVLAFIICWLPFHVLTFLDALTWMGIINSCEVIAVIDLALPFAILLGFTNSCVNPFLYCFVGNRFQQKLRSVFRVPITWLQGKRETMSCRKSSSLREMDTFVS", "assay": "angiotensin II receptor binding in whole rat brain (DTT protocol)", "from_the_text": "Since receptor-specific binding in whole brain is low and is a mixture of two subtypes, an alternative protocol (Bennett and Snyder, Eur. J. Pharmacol., 67, 11-25) was used. This method includes DTT and thereby eliminates binding at AT1 receptors, thus-allowing evaluation of AT2 receptor events."}, "[3]": {"system": "rat striatum acetylcholine (ACh)", "assay": "effect on rat striatal acetylcholine (ACh) levels", "type": "in vivo", "conditions": "for ACh concentration, rat striatum: vehicle 61.0 ± 2.33; for ACh, rat striatum, time course: control 65.4 ± 2.47", "protocol": "ACh concentrations were determined as described below. Each\nResults were analyzed by a oneway"}, "[4]": {"system": "angiotensin II receptors (AT1 and AT2), rat brain regions", "assay": "displacement of 125I-angiotensin II from receptor preparations of rat brain regions", "type": "binding", "experimental": "The concentration of all three antagonist compounds in these experiments is 1 μM (above the maximal effect concentration)."}, "[5]": {"system": "angiotensin II receptors (AT1/AT2) of corpus luteum", "assay": "inhibition of 125I-angiotensin II binding, corpus luteum", "set-up": "species or system rabbit", "conditions": "1 μM; 125I-angiotensin II; data from Warner-Lambert Co."}, "[6]": {"assay": "estrous cycles in the mature female rat", "type": "in vivo", "conditions": "for Length of cycles: Pre Rx 4; for Number of cycles observed: Pre Rx 10", "protocol": "Female rats underwent vaginal smearing every morning for 5 weeks; rats with regular 4-day cycles (proestrus, estrus, metestrus, diestrus) were chosen for further study. Groups of rats (n=5) were implanted with Alzet osmotic minipumps (Model 2ML2) containing Example 1 or vehicle on the afternoon of estrus (approximately 2 PM). Drug-treated animals received 30 mg/kg/day Example I for 14 days. Cycles were continually monitored throughout the treatment period and for an additional 20 to 22 days posttreatment.\nVehicle-treated animals continued to cycle in a 4-day pattern throughout the study."}, "[7]": {"system": "angiotensin II receptors (AT1/AT2) of granulosa cell", "conditions": "cited from earlier work"}, "[8]": {"system": "AT2 receptor, ovarian cells", "conditions": "Pucell et al., Endocrinology 1991; cited from earlier work"}, "[9]": {"system": "rat hippocampus acetylcholine (ACh)", "assay": "effect on rat hippocampal acetylcholine (ACh) levels", "conditions": "30 mg/kg IP, 0.5 h; ± SEM; vehicle 23.9 ± 2.39; * p < 0.05", "experimental": "Thirty minutes after dosing, the rats were sacrificed by exposure to microwave irradiation. […] Haloperidol (2 mg/kg, IP) provides a positive control.\ndosing ACh concentrations were determined as described below."}, "[10]": {"assay": "effect on renal free water clearance in anesthetized dogs", "conditions": "for Free Water Clearance: predose -0.24 ± 0.05, mean ± SE", "text": "Dogs were anesthetized with sodium pentobarbital after an overnight fast. Animals were placed on a prewarmed surgical table, intubated and prepared for renal clearance experiments. Femoral arteries were cannulated for aortic blood pressure measurements and for blood sampling. A femoral vein was cannulated and used for the infusion of inulin. A left flank incision was made to expose the kidney and ureter. An electromagnetic flow probe was placed on the left renal artery and the left ureter was cannulated for urine collection. An intrarenal infusion of 5% dextrose in water (D5W, 50 μL/min) was administered throughout the protocol except during drug treatment intervals. A priming dose of 50 mL D5W containing 200 mg/kg insulin was administered to each dog via the femoral vein catheter and then followed by a sustained infusion of inulin in D5W (15 mg/mL, 0.075 mL/min/kg).\nA clearance consisted of a timed urine collection with a midpoint blood sample. […] These last two clearances were designated as postdose.\nPlasma and urinary electrolytes were determined with an ion selective electrode analyzer. Urine and plasma inulin concentrations were assayed using an anthrone colorimetric method (Davidson, et al, J. Lab and Clin. Med., 1963, 62, 351-356). Renal clearances and fractional excretion were calculated using standard formulas (Vander, Renal Physiology, 4th ed, pp 44-52 (1991))."}, "[11]": {"conditions": "10 mg/kg IP, 0.5 h, ± SEM, * p < 0.05"}},
  "note": "pIC50: −log10 of the molar value.",
  "data": [
    {"smiles": "Cc1cc(Cn2cnc3c2C[C@@H](C(=O)O)N(C(=O)C(c2ccccc2)c2ccccc2)C3)ccc1N(C)C", "note": "[Example 1]", "values": [
      {"measurement": "pIC50", "setting": "[1]", "value": 7.68},
      {"measurement": "pIC50", "setting": "[2]", "value": 6.70},
      {"measurement": "ACh concentration, rat striatum", "setting": "[3]; 1 mg/kg IP, 0.5 h, ± SEM", "value": "57.9 ± 1.86", "unit": "nM/g"},
      {"measurement": "ACh concentration, rat striatum", "setting": "[3]; [11]", "value": "48.1 ± 0.99", "unit": "nM/g"},
      {"measurement": "ACh, rat striatum, time course", "setting": "[3]; [11]", "value": "37.6 ± 2.10", "unit": "nM/g"},
      {"measurement": "ACh, rat striatum, time course", "setting": "[3]; 10 mg/kg IP, 1.0 h, ± SEM, * p < 0.05", "value": "47.9 ± 2.24", "unit": "nM/g"},
      {"measurement": "ACh, rat striatum, time course", "setting": "[3]; 10 mg/kg IP, 3.0 h, ± SEM, * p < 0.05", "value": "50.2 ± 4.53", "unit": "nM/g"},
      {"measurement": "ACh, rat striatum, time course", "setting": "[3]; 10 mg/kg IP, 6.0 h, ± SEM", "value": "55.8 ± 4.28", "unit": "nM/g"},
      {"measurement": "ACh, rat striatum, time course", "setting": "[3]; 10 mg/kg IP, 24.0 h, ± SEM", "value": "61.3 ± 2.30", "unit": "nM/g"},
      {"measurement": "time of peak ACh lowering effect", "setting": "[3]; 10 mg/kg, IP", "value": 0.5, "unit": "h"},
      {"measurement": "time for ACh levels to return to control levels", "setting": "[3]; 10 mg/kg, IP, gradual return", "value": 24, "unit": "h"},
      {"measurement": "ACh, Striatum (Table V)", "setting": "[3]; 30 mg/kg IP, 0.5 h, ± SEM, vehicle 52.9 ± 1.72, * p < 0.05", "value": "39.7 ± 0.99", "unit": "nM/g"},
      {"measurement": "ACh concentration, rat striatum", "setting": "[3]; 30 mg/kg IP, 0.5 h, ± SEM, * p < 0.05", "value": "37.6 ± 2.10", "unit": "nM/g"},
      {"measurement": "ACh concentration, rat striatum", "setting": "[3]; 60 mg/kg IP, 0.5 h, ± SEM, * p < 0.05", "value": "41.1 ± 1.89", "unit": "nM/g"},
      {"measurement": "striatal ACh lowering compared with haloperidol (in words)", "setting": "[3]; IP, haloperidol 2 mg/kg", "value": "matched the efficacy of haloperidol"},
      {"measurement": "ACh content in brain tissues (in words)", "setting": "[3]; Tables IV, V and VI", "value": "lowers ACh content in brain tissues in a dose dependant and time dependant manner"},
      {"measurement": "displacement of 125I-angiotensin II in rat brain areas (in words)", "setting": "[4]; 1 μM per text, each area of brain examined", "value": "displace a fraction of the ^125 I-angiotensin II that is displaced by saralasin"},
      {"measurement": "125I-Angiotensin II Bound, Brain Stem", "setting": "[4]; rat brain stem, antagonist 10 μM, total 2124", "value": 1258, "unit": "cpm"},
      {"measurement": "125I-Angiotensin II Bound, Cerebellum", "setting": "[4]; rat cerebellum, antagonist 10 μM, total 571", "value": 446, "unit": "cpm"},
      {"measurement": "125I-Angiotensin II Bound, Cortex", "setting": "[4]; rat cortex, antagonist 10 μM, total 766", "value": 507, "unit": "cpm"},
      {"measurement": "125I-Angiotensin II Bound, Cortical Neurons", "setting": "[4]; rat cortical neurons, antagonist 10 μM, total 2647", "value": 2118, "unit": "cpm"},
      {"measurement": "125I-Angiotensin II Bound, Striatal Membrane", "setting": "[4]; rat striatal membrane, antagonist 10 μM, total 2462", "value": 1838, "unit": "cpm"},
      {"measurement": "% Inhibition with 1 μM Antagonist, Corpus luteum", "setting": "[5]", "value": 3, "unit": "%"},
      {"measurement": "cyclicity during treatment (in words)", "setting": "[6]; 30 mg/kg/day, 14 days", "value": "acyclic during the 14-day treatment interval"},
      {"measurement": "cyclicity posttreatment (in words)", "setting": "[6]; 20 to 22 days posttreatment", "value": "resumed cycling during the posttreatment observation period"},
      {"measurement": "Length of cycles", "setting": "[6]; Post Rx (20 to 22 days posttreatment), vehicle Post Rx 4", "value": 3.9, "unit": "days"},
      {"measurement": "Number of cycles observed", "setting": "[6]; Post Rx (20 to 22 days posttreatment), vehicle Post Rx 5", "value": 4},
      {"measurement": "Length of cycles", "setting": "[6]; Rx: 30 mg/kg/day, 14 days, osmotic minipump, vehicle Rx 4.5", "value": 14.4, "unit": "days"},
      {"measurement": "Number of cycles observed", "setting": "[6]; Rx: 30 mg/kg/day, 14 days, osmotic minipump, vehicle Rx 3", "value": 1},
      {"measurement": "effect on menstrual cycle (in words)", "setting": "[6]; reproductive studies in rats", "value": "interrupts the menstrual cycle"},
      {"measurement": "% Inhibition with 1 μM Antagonist, Granulosa cell", "setting": "[7]; 1 μM, 125I-angiotensin II, adapted from Pucell et al., Endocrinology 1991", "value": 97, "unit": "%"},
      {"measurement": "displacement of 125I-angiotensin II, granulosa cells (in words)", "setting": "[7]; Table IX", "value": "displaces nearly all of the 125I-angiotensin II"},
      {"measurement": "AT2 antagonism in ovarian cells", "setting": "[8]", "value": "AT2 antagonistic properties"},
      {"measurement": "ACh, Hippocampus (Table V)", "setting": "[9]", "value": "15.1 ± 1.55", "unit": "nM/g"},
      {"measurement": "Free Water Clearance, Change from Predose", "setting": "[10]; 60 min, dose 3 intrarenal", "value": "+54%"},
      {"measurement": "Free Water Clearance, Change from Predose", "setting": "[10]; 90 min, dose 30 intrarenal", "value": "+150%"},
      {"measurement": "Free Water Clearance", "setting": "[10]; 90 min, dose 30 intrarenal, * p = 0.097 vs vehicle", "value": "+0.11 ± 0.19 mL/min"},
      {"measurement": "Free Water Clearance, Change from Predose", "setting": "[10]; 120 min, dose 300 intrarenal", "value": "+370%"},
      {"measurement": "Free Water Clearance", "setting": "[10]; 120 min, dose 300 intrarenal, ** p = 0.015 vs vehicle", "value": "+0.64 ± 0.30 mL/min"},
      {"measurement": "Free Water Clearance", "setting": "[10]; 150 min, postdose (dose 0, after washout), *** p = 0.002 vs vehicle", "value": "+0.29 ± 0.10 mL/min"},
      {"measurement": "Free water clearance, increase from predose levels", "setting": "[10]; intrarenal infusion, cumulative doses 3, 30 and 300 μg/kg/min", "value": "up to 370%"},
      {"measurement": "free water clearance (in words)", "setting": "[10]; versus vehicle control", "value": "increase in free water clearance that is dose dependant and statistically significant when compared to the vehicle control"}
    ]}
  ]
}
